Results published in the kinase profiling compilation of Christmann-Franck et al. (2016).

These compounds were tested against DYRK1B (human) (UniProt Q9Y463) (assay: radiometric filter-binding kinase assay, Kinase HotSpot). Conditions: compound 0.5 µM; ATP 10 µM.
Chain of DYRK1B (human) (Q9Y463 whole entry, looked up): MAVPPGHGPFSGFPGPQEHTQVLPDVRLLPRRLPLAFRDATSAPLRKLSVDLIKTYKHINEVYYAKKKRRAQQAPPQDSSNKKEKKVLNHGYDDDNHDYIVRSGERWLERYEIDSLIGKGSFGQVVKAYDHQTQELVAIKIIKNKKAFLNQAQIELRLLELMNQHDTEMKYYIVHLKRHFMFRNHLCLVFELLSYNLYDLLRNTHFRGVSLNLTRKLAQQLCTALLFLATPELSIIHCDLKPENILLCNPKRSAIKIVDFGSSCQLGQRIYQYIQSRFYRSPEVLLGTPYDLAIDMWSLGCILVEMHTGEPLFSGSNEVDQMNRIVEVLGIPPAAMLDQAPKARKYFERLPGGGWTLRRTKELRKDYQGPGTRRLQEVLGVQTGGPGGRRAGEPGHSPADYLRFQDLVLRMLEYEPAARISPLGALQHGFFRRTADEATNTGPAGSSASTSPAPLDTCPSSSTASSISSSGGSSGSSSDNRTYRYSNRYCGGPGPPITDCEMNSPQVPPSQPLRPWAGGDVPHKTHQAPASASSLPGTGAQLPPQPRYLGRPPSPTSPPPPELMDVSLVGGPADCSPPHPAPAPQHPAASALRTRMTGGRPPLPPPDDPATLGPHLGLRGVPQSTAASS

First: O=c1c(-c2ccc(F)cc2)c(-c2ccncc2)[nH]n1-c1ccc(Cl)cc1
Second: O=C1NC(=O)c2cc(Nc3ccc(F)cc3)c(Nc3ccc(F)cc3)cc21
The residual activity of the first is lower: 92.2% for the first, 105% for the second.

Compound Cn1cc(/C=C2\C(=O)Nc3ccc(S(N)(=O)=O)cc32)c2ccccc21 has a residual activity of 104%.

These compounds were tested against PAK7 (human) (UniProt Q9P286) in the same assay as above. Conditions: compound 0.5 µM; ATP 10 µM.
Chain of PAK7 (human) (Q9P286 whole entry, looked up): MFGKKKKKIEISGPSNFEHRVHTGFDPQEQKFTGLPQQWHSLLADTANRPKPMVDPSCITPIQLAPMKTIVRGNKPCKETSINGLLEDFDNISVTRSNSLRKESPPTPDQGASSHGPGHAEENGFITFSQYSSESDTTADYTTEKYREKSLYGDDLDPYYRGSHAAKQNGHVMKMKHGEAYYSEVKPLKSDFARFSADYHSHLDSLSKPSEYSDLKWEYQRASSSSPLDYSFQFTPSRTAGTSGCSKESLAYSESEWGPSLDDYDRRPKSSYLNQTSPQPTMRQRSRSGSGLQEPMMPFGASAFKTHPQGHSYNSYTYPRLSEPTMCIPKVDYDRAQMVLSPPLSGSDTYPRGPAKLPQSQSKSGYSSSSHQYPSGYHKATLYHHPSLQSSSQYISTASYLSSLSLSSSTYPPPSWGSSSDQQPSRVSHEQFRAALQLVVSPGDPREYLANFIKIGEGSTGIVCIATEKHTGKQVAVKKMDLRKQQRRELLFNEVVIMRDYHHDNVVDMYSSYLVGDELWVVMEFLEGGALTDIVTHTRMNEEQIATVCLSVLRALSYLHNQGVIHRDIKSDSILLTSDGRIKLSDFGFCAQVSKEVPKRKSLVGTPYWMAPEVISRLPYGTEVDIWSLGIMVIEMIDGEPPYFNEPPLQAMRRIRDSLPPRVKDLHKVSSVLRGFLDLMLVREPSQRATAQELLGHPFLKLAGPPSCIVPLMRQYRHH

First: CCc1nc(-c2ccc(OC)cc2)[nH]c1-c1ccncc1
Second: O=c1c(-c2ccc(F)cc2)c(-c2ccncc2)[nH]n1-c1ccc(Cl)cc1
The residual activity of the first is higher: 101% for the first, 86.3% for the second.

First: Cn1cc(/C=C2\C(=O)Nc3ccc(S(N)(=O)=O)cc32)c2ccccc21
Second: O=C1NC(=O)c2cc(Nc3ccc(F)cc3)c(Nc3ccc(F)cc3)cc21
The residual activity of the first is lower: 75.3% for the first, 96.4% for the second.

These compounds were tested against PTK6 (human) (UniProt Q13882) in the same assay as above. Conditions: compound 0.5 µM; ATP 10 µM.
Chain of PTK6 (human) (Q13882 whole entry, looked up): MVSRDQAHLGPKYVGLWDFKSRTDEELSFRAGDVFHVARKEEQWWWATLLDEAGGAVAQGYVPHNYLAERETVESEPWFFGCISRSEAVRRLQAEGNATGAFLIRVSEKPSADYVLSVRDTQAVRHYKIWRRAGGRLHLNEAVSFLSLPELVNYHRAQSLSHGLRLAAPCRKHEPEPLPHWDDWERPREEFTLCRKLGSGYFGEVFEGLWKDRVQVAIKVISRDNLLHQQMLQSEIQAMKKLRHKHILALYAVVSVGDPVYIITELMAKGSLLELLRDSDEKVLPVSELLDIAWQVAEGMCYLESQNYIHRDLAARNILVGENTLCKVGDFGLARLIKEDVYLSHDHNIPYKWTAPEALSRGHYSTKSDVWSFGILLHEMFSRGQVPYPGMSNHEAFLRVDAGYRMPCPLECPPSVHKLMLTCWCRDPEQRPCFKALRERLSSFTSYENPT

First: CCc1nc(-c2ccc(OC)cc2)[nH]c1-c1ccncc1
Second: O=c1c(-c2ccc(F)cc2)c(-c2ccncc2)[nH]n1-c1ccc(Cl)cc1
The residual activity of the first is higher: 88.5% for the first, 57.5% for the second.

Going from Cn1cc(/C=C2\C(=O)Nc3ccc(S(N)(=O)=O)cc32)c2ccccc21 to O=C1NC(=O)c2cc(Nc3ccc(F)cc3)c(Nc3ccc(F)cc3)cc21, the residual activity rises from 80.2% to 95.1%.

The compounds below were run against BMX (human) (UniProt P51813) in the same assay as above. Conditions: compound 0.5 µM; ATP 10 µM.

Compared with CCc1nc(-c2ccc(OC)cc2)[nH]c1-c1ccncc1, O=c1c(-c2ccc(F)cc2)c(-c2ccncc2)[nH]n1-c1ccc(Cl)cc1 is higher in residual activity: 93.4% for the first, 95.8% for the second.

First: Cn1cc(/C=C2\C(=O)Nc3ccc(S(N)(=O)=O)cc32)c2ccccc21
Second: O=C1NC(=O)c2cc(Nc3ccc(F)cc3)c(Nc3ccc(F)cc3)cc21
The residual activity of the first is lower: 77% for the first, 95.3% for the second.

The compounds below were run against ABL1 (human) (UniProt P00519) in the same assay as above. Conditions: compound 0.5 µM; ATP 10 µM.

First: CCc1nc(-c2ccc(OC)cc2)[nH]c1-c1ccncc1
Second: O=c1c(-c2ccc(F)cc2)c(-c2ccncc2)[nH]n1-c1ccc(Cl)cc1
The residual activity of the first is higher: 101% for the first, 98.1% for the second.

Compared with Cn1cc(/C=C2\C(=O)Nc3ccc(S(N)(=O)=O)cc32)c2ccccc21, O=C1NC(=O)c2cc(Nc3ccc(F)cc3)c(Nc3ccc(F)cc3)cc21 is higher in residual activity: 52.5% for the first, 95.7% for the second.

The compounds below were run against EPHA7 (human) (UniProt Q15375) in the same assay as above. Conditions: compound 0.5 µM; ATP 10 µM.
Chain of EPHA7 (human) (Q15375 whole entry, looked up): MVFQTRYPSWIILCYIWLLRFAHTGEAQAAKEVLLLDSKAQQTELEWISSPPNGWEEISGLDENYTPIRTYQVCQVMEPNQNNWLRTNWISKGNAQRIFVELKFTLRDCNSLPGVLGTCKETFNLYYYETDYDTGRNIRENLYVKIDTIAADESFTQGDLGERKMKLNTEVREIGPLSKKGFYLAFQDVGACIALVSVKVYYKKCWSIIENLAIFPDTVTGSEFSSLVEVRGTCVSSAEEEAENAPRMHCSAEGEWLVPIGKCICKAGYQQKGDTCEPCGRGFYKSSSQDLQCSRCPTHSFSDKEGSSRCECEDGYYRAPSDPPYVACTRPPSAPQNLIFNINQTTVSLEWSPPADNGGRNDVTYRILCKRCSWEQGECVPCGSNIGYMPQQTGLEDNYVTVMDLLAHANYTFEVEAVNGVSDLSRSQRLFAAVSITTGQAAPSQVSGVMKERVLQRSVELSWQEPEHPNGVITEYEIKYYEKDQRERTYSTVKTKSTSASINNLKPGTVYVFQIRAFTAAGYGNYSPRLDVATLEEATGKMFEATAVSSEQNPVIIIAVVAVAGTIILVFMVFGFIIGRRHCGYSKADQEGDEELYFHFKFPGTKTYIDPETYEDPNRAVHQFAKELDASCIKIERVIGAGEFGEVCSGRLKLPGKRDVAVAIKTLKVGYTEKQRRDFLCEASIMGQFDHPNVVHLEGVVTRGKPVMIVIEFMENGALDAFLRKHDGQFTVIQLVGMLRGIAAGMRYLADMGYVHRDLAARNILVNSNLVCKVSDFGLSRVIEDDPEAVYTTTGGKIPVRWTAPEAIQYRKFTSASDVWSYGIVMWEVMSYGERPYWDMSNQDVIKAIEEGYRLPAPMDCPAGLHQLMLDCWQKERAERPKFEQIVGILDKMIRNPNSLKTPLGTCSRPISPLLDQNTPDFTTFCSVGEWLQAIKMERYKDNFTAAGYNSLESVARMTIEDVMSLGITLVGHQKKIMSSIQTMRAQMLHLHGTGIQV

Going from CCc1nc(-c2ccc(OC)cc2)[nH]c1-c1ccncc1 to O=c1c(-c2ccc(F)cc2)c(-c2ccncc2)[nH]n1-c1ccc(Cl)cc1, the residual activity rises from 91.6% to 98.5%.

Compared with Cn1cc(/C=C2\C(=O)Nc3ccc(S(N)(=O)=O)cc32)c2ccccc21, O=C1NC(=O)c2cc(Nc3ccc(F)cc3)c(Nc3ccc(F)cc3)cc21 is higher in residual activity: 41.3% for the first, 84.6% for the second.

The compounds below were run against CSK (human) (UniProt P41240) in the same assay as above. Conditions: compound 0.5 µM; ATP 10 µM.
Chain of CSK (human) (P41240 whole entry, looked up): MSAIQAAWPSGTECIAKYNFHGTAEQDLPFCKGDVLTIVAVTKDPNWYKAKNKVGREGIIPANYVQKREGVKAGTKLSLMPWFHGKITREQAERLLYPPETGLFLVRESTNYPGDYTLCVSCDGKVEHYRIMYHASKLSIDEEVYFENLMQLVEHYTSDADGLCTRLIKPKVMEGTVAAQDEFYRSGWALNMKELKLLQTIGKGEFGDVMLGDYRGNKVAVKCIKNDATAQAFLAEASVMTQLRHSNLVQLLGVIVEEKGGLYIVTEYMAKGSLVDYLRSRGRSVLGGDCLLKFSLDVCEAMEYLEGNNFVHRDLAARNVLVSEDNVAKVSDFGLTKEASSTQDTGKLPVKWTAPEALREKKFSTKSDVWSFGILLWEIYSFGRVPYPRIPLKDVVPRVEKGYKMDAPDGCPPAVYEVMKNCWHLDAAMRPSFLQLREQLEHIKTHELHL

First: CCc1nc(-c2ccc(OC)cc2)[nH]c1-c1ccncc1
Second: O=c1c(-c2ccc(F)cc2)c(-c2ccncc2)[nH]n1-c1ccc(Cl)cc1
The residual activity of the first is higher: 101% for the first, 86.1% for the second.

Compared with Cn1cc(/C=C2\C(=O)Nc3ccc(S(N)(=O)=O)cc32)c2ccccc21, O=C1NC(=O)c2cc(Nc3ccc(F)cc3)c(Nc3ccc(F)cc3)cc21 is higher in residual activity: 89.3% for the first, 92% for the second.

What follows are compounds tested against CLK3 (human) (UniProt P49761) in the same assay as above. Conditions: compound 0.5 µM; ATP 10 µM.
Chain of CLK3 (human) (P49761 whole entry, looked up): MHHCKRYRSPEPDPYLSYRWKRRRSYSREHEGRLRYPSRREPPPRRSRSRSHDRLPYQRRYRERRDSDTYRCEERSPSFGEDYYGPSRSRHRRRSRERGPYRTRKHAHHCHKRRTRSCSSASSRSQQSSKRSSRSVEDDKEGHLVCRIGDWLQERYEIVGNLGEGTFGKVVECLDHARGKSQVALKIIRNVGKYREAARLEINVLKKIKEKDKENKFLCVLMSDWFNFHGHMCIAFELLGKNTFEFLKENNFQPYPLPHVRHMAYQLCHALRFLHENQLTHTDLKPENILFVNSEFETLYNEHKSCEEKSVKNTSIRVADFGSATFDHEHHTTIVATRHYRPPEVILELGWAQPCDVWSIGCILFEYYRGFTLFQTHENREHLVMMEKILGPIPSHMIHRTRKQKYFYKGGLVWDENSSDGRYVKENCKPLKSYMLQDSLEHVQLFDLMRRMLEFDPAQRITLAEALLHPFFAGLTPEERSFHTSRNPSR

Going from CCc1nc(-c2ccc(OC)cc2)[nH]c1-c1ccncc1 to O=c1c(-c2ccc(F)cc2)c(-c2ccncc2)[nH]n1-c1ccc(Cl)cc1, the residual activity falls from 95.6% to 88.7%.

First: Cn1cc(/C=C2\C(=O)Nc3ccc(S(N)(=O)=O)cc32)c2ccccc21
Second: O=C1NC(=O)c2cc(Nc3ccc(F)cc3)c(Nc3ccc(F)cc3)cc21
The residual activity of the first is lower: 81.4% for the first, 93.7% for the second.

What follows are compounds tested against ZAP70 (human) (UniProt P43403) in the same assay as above. Conditions: compound 0.5 µM; ATP 10 µM.
Chain of ZAP70 (human) (P43403 whole entry, looked up): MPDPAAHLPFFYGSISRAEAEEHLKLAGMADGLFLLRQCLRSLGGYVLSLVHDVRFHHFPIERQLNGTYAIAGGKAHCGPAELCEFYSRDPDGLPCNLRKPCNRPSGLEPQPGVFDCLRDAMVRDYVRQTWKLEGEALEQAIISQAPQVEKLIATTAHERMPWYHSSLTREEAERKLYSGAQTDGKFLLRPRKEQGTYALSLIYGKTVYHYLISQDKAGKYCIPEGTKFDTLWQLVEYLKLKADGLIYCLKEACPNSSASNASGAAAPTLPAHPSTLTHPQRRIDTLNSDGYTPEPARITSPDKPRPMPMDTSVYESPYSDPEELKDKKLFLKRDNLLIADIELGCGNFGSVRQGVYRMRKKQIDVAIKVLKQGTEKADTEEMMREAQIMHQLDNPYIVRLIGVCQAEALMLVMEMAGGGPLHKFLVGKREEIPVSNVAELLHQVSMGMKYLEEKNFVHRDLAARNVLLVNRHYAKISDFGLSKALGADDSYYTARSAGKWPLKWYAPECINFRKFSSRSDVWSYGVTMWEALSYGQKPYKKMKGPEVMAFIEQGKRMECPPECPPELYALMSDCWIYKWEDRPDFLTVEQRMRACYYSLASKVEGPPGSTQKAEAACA

Going from CCc1nc(-c2ccc(OC)cc2)[nH]c1-c1ccncc1 to O=c1c(-c2ccc(F)cc2)c(-c2ccncc2)[nH]n1-c1ccc(Cl)cc1, the residual activity rises from 101% to 108%.

Compared with Cn1cc(/C=C2\C(=O)Nc3ccc(S(N)(=O)=O)cc32)c2ccccc21, O=C1NC(=O)c2cc(Nc3ccc(F)cc3)c(Nc3ccc(F)cc3)cc21 is lower in residual activity: 102% for the first, 78.8% for the second.

The compounds below were run against EGFR (human) (UniProt P00533) in the same assay as above. Conditions: compound 0.5 µM; ATP 10 µM.

Compared with CCc1nc(-c2ccc(OC)cc2)[nH]c1-c1ccncc1, O=c1c(-c2ccc(F)cc2)c(-c2ccncc2)[nH]n1-c1ccc(Cl)cc1 is lower in residual activity: 103% for the first, 57.7% for the second.

Cn1cc(/C=C2\C(=O)Nc3ccc(S(N)(=O)=O)cc32)c2ccccc21 gave a residual activity of 77.5%.

Each compound was assayed against MYLK2 (human) (UniProt Q9H1R3) in the same assay as above. Conditions: compound 0.5 µM; ATP 10 µM.
Chain of MYLK2 (human) (Q9H1R3 whole entry, looked up): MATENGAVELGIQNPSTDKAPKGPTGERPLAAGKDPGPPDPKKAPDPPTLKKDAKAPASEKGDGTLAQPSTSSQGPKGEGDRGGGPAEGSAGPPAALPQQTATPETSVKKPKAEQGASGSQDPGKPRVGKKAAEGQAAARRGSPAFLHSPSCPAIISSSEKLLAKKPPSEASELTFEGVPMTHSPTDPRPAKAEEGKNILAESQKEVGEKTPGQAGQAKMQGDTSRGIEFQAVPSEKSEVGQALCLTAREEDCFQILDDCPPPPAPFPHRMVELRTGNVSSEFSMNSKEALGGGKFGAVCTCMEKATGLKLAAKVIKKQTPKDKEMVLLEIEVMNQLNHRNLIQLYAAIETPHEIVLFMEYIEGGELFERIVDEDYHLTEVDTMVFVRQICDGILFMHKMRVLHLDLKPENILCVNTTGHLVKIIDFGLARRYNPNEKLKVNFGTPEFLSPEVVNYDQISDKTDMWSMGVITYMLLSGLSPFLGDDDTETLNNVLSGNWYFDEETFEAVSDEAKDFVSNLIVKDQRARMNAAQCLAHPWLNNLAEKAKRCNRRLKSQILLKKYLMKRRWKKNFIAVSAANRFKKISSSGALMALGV

CCc1nc(-c2ccc(OC)cc2)[nH]c1-c1ccncc1 and O=c1c(-c2ccc(F)cc2)c(-c2ccncc2)[nH]n1-c1ccc(Cl)cc1 are the same in residual activity: 101% for the first, 101% for the second.

In the case of Cn1cc(/C=C2\C(=O)Nc3ccc(S(N)(=O)=O)cc32)c2ccccc21, the residual activity is reported as 53.6%.
